Data on 13 compounds can be found in ChEMBL document CHEMBL3045210, “Inhibition of trans-Cinnamate 4-Hydroxylase by 4-Amino-5-aryl-2,3-dihydro-3H-1,2,4-triazole-3-thiones” (J Pestic Sci, 2005).

Each structure is given as a SMILES string. Calls of active or inactive are those of the source. The calls are words filed in the database; no cut-off is given here.

What is called IC50 is the concentration that inhibits the measured activity by half.

One test has as its system Solanum tuberosum. Briefly: Induction of accumulation of trans-cinnamic acid in Solanum tuberosum (potato) tubers at 0.02 to 20 ng/disk after 24 hr relative to laminarin. The format is functional.
On to `Nn1c(S)nnc1-c1ccccc1`, for which the “fold change (FC)” value was 3.

A further test addresses T1, Trans-cinnamate 4-monooxygenase (Populus kitakamiensis) (UniProt Q43054).
T1 sequence (whole entry): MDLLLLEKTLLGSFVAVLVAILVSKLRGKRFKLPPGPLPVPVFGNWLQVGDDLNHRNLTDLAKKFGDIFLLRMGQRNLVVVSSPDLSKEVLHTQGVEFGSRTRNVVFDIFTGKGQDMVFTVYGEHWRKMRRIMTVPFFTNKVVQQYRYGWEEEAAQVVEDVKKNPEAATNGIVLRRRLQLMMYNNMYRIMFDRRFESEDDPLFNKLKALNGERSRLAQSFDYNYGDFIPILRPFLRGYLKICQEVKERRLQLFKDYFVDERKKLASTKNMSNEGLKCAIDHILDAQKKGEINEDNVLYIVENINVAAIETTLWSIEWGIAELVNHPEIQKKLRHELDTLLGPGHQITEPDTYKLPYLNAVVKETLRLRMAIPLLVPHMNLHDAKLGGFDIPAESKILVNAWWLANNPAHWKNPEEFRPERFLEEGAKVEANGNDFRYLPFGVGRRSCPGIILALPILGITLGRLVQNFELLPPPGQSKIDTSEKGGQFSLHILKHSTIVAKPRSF
The test can be described thus: Mixed-type inhibition of Populus sieboldii x Populus grandidentata trans-cinnamate 4-hydroxylase by Lineweaver-Burk plot analysis.
Regarding `Nn1c(S)nnc1-c1ccccc1`, the inhibition entry was “Active”.

The target of the next test is T2, Trans-cinnamate 4-monooxygenase (Populus kitakamiensis, UniProt Q43054).
T2 sequence (Q43054 whole entry): T1 sequence (whole entry)
The test can be described thus: Inhibition of Populus sieboldii x Populus grandidentata trans-cinnamate 4-hydroxylase assessed as p-coumaric acid level.
`Nn1c(-c2ccncc2)n[nH]c1=S`: the IC50 came to 13 µM. The same measure, in the same setting: with `Nn1c(-c2cccnc2)n[nH]c1=S` the figure was 51 µM; with `Nn1c(-c2cccc(F)c2)n[nH]c1=S`, 3.9 µM. The same measure, in the same setting: in the case of `Nn1c(-c2cccc(Cl)c2)n[nH]c1=S` it was 5 µM; in that of `Cc1cccc(-c2n[nH]c(=S)n2N)c1`, 3.6 µM. The same measure, in the same setting: in the case of `Nn1c(-c2ccccc2Cl)n[nH]c1=S` it was above 100 µM; in that of `Nn1c(S)nnc1-c1ccco1`, above 100 µM; in that of `Nn1c(-c2ccccn2)n[nH]c1=S`, 45 µM. In the case of `Nn1c(-c2cccs2)n[nH]c1=S`, the IC50 was 45 µM.

In the case of `Nn1c(-c2ccc(O)cc2)n[nH]c1=S`, the IC50 is above 100 µM. Still for that read-out and setting: in the case of `Nn1c(S)nnc1-c1ccccc1` it was 0.32 µM; in that of `Nn1c(-c2ccc(Cl)cc2)n[nH]c1=S`, above 100 µM.

For `Cc1ccc(-c2n[nH]c(=S)n2N)cc1`, the half-inhibitory concentration (IC50) is above 100 µM.
